Usually IC50 stands for the concentration that gives 50% inhibition.

Chain of Human Factor D (P00746 26-253): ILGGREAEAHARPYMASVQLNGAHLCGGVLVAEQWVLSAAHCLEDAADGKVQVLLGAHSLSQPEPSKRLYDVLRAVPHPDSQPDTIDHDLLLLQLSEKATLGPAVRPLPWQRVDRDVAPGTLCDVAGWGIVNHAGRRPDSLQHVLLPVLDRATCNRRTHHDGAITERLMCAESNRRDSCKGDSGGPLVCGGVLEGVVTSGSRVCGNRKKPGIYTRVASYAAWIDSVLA

In this assay the target is Human Factor D (Homo sapiens (Human), UniProt P00746). Put plainly: Human Factor D Assay. It is filed as biochemical. To be noted: Human Factor D, Table 3; read-out: IC50. Summed up:
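Thioester cleavage assay: human Factor D (serum-derived, 80 nM final), substrate Z-L-Lys-SBzl with DTNB, both 100 μM final, after 5 min compound preincubation at room temperature.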
In the case of `CC(=O)c1nn(CC(=O)N2C[C@H](F)C[C@H]2C(=O)Nc2cccc(Br)n2)c2ccc(-c3cnc(C(=O)O)nc3)cc12` [Compound 598, 5-(3-Acetyl-1-(2-((2S,4R)-2-((6-bromopyridin-2-yl)carbamoyl)-4-fluoropyrrolidin-1-yl)-2-oxoethyl)-1H-indazol-5-yl)pyrimidine-2-carboxylic acid], the IC50 is less than 1000 nM.

`CC(=O)c1nn(CC(=O)N2C[C@H](F)C[C@H]2C(=O)Nc2cccc(Br)n2)c2ccc(-c3cnc(C(N)=O)nc3)cc12` [Compound 599, 5-(3-Acetyl-1-(2-((2S,4R)-2-((6-bromopyridin-2-yl)carbamoyl)-4-fluoropyrrolidin-1-yl)-2-oxoethyl)-1H-indazol-5-yl)pyrimidine-2-carboxamide]: the IC50 was less than 1000 nM.

With `CC(=O)c1nn(CC(=O)N2C[C@H](F)C[C@H]2C(=O)Nc2cccc(-c3ncco3)n2)c2ccc(-c3cnc(C)nc3)cc12` [Compound 600, (2S,4R)-1-(2-(3-Acetyl-5-(2-methylpyrimidin-5-yl)-1H-indazol-1-yl)acetyl)-4-fluoro-N-(6-(oxazol-2-yl)pyridin-2-yl)pyrrolidine-2-carboxamide], the IC50 is less than 1000 nM.

With `CC(=O)c1nn(CC(=O)N2C[C@H](F)C[C@H]2C(=O)Nc2nc(OCC(F)(F)F)ccc2C)c2ccc(-c3cnc(C)nc3)cc12` [Compound 601, (2S,4R)-1-(2-(3-Acetyl-5-(2-methylpyrimidin-5-yl)-1H-indazol-1-yl)acetyl)-4-fluoro-N-(3-methyl-6-(2,2,2-trifluoroethoxy)pyridin-2-yl)pyrrolidine-2-carboxamide], the IC50 is less than 1000 nM.

As for `CC(=O)c1nn(CC(=O)N2C[C@H](F)C[C@H]2C(=O)Nc2nc(C(C)(F)F)ccc2C)c2ccc(-c3cnc(C)nc3)cc12` [Compound 602, (2S,4R)-1-(2-(3-Acetyl-5-(2-methylpyrimidin-5-yl)-1H-indazol-1-yl)acetyl)-N-(6-(1,1-difluoroethyl)-3-methylpyridin-2-yl)-4-fluoropyrrolidine-2-carboxamide], the IC50 is less than 1000 nM.

In the case of `CC(=O)c1nn(CC(=O)N2[C@@H]3C[C@@H]3C[C@H]2C(=O)Nc2nc(Br)ccc2C2CC2)c2ccc(-c3cnc(C)nc3)cc12` [Compound 603, (1R,3S,5R)-2-(2-(3-Acetyl-5-(2-methylpyrimidin-5-yl)-1H-indazol-1-yl)acetyl)-N-(6-bromo-3-cyclopropyl-pyridin-2-yl)-2-azabicyclo[3.1.0]hexane-3-carboxamide], the IC50 was less than 1000 nM.

On to `CC(=O)c1nn(CC(=O)N2C[C@H](F)C[C@H]2C(=O)Nc2cccc(Br)n2)c2ccc(-c3cnc(O)nc3)cc12` [Compound 604, (2S,4R)-1-(2-(3-Acetyl-5-(2-hydroxypyrimidin-5-yl)-1H-indazol-1-yl)acetyl)-N-(6-bromopyridin-2-yl)-4-fluoropyrrolidine-2-carboxamide], for which the IC50 is less than 1000 nM.

`CC(=O)c1nn(CC(=O)N2C[C@@H]3C[C@@H]3[C@H]2C(=O)Nc2nc(Br)ccc2C)c2ccc(-c3cnc(C)nc3)cc12` [Compound 605, (1S,2S,5R)-3-(2-(3-Acetyl-5-(2-methylpyrimidin-5-yl)-1H-indazol-1-yl)acetyl)-N-(6-bromo-3-methylpyridin-2-yl)-3-azabicyclo[3.1.0]hexane-2-carboxamide]: the IC50 is less than 1000 nM.

Consider `COCc1ccc(Br)nc1NC(=O)[C@@H]1C[C@@H](F)CN1C(=O)Cn1nc(C(C)=O)c2cc(-c3cnc(C)nc3)ccc21` [Compound 606, (2S,4R)-1-(2-(3-Acetyl-5-(2-methylpyrimidin-5-yl)-1H-indazol-1-yl)acetyl)-N-(6-bromo-3-(methoxymethyl)pyridin-2-yl)-4-fluoropyrrolidine-2-carboxamide], for which the IC50 was less than 1000 nM.

Turning to `COC(=O)c1ccc(Br)nc1NC(=O)[C@@H]1C[C@@H](F)CN1C(=O)Cn1nc(C(C)=O)c2cc(-c3cnc(C)nc3)ccc21` [Compound 607, Methyl 2-((2S,4R)-1-(2-(3-Acetyl-5-(2-methylpyrimidin-5-yl)-1H-indazol-1-yl)acetyl)-4-fluoropyrrolidine-2-carboxamido)-6-bromonicotinate], the IC50 was less than 1000 nM.

With `CC(=O)c1nn(CC(=O)N2C[C@H](F)C[C@H]2C(=O)Nc2cccc(Br)n2)c2c(C)cc(-c3cnc(C)nc3)cc12` [Compound 608, (2S,4R)-1-(2-(3-Acetyl-7-methyl-5-(2-methylpyrimidin-5-yl)-1H-indazol-1-yl)acetyl)-N-(6-bromopyridin-2-yl)-4-fluoropyrrolidine-2-carboxamide], the concentration for half-maximal inhibition (IC50) is less than 1000 nM.

Consider `CC(=O)c1nn(CC(=O)N2C[C@H](F)C[C@H]2C(=O)Nc2cccc(Br)n2)c2cc(C)c(-c3cnc(C)nc3)cc12` [Compound 609, (2S,4R)-1-(2-(3-Acetyl-6-methyl-5-(2-methylpyrimidin-5-yl)-1H-indazol-1-yl)acetyl)-N-(6-bromopyridin-2-yl)-4-fluoropyrrolidine-2-carboxamide], for which the IC50 was less than 1000 nM.

For the compound `CC(=O)c1nn(CC(=O)N2[C@@H]3C[C@@H]3C[C@H]2C(=O)NC2CCN(CC(F)(F)F)C2)c2ccc(-c3cnc(C)nc3)cc12` (stereo partly drawn) [Compound 611, (1R, 3S, 5R)-2-(2-(3-acetyl-5-(2-methylpyrimidin-5-yl)-1H-indazol-1-yl)acetyl)-N-(1-(2,2,2-trifluoroethyl)pyrrolidin-3-yl)-2-azabicyclo [3.1.0] hexane-3-carboxamide], the IC50 is less than 1000 nM.

With `CC(=O)c1nn(CC(=O)N2C[C@H](F)C[C@H]2C(=O)NCC23CC4CC(CC(C4)C2)C3)c2ccc(-c3cnc(C)nc3)cc12` [Compound 612, (2S,4R)-1-(2-(3-Acetyl-5-(2-methylpyrimidin-5-yl)-1H-indazol-1-yl)acetyl)-N-(((3S,5S,7S)-adamantan-1-yl)methyl)-4-fluoropyrrolidine-2-carboxamide], the IC50 was less than 1000 nM.

In the case of `CC(=O)c1nn(CC(=O)N2C[C@H](F)C[C@H]2C(=O)Nc2nc(Br)ccc2C(=O)O)c2ccc(-c3cnc(C)nc3)cc12` [Compound 615, 2-((2S,4R)-1-(2-(3-Acetyl-5-(2-methylpyrimidin-5-yl)-1H-indazol-1-yl)acetyl)-4-fluoropyrrolidine-2-carboxamido)-6-bromonicotinic acid], the IC50 was less than 1000 nM.

`CC(=O)c1nn(CC(=O)N2[C@H](C(=O)Nc3nc(Br)ccc3C3CC3)C[C@@]3(C)C[C@@H]23)c2ccc(-c3cnc(C)nc3)cc12` [Compound 616, (1R,3S,5R)-2-(2-(3-Acetyl-5-(2-methylpyrimidin-5-yl)-1H-indazol-1-yl)acetyl)-N-(6-bromo-3-cyclopropyl-pyridin-2-yl)-5-methyl-2-azabicyclo[3.1.0]hexane-3-carboxamide]: the IC50 is less than 1000 nM.

For the compound `CC(=O)c1nn(CC(=O)N2C3CC[C@@H](C3)[C@H]2C(=O)Nc2nc(Br)ccc2C)c2ccc(-c3cnc(C)nc3)cc12` [Compound 617, (3S,4S)-2-(2-(3-Acetyl-5-(2-methylpyrimidin-5-yl)-1H-indazol-1-yl)acetyl)-N-(6-bromo-3-methylpyridin-2-yl)-2-azabicyclo[2.2.1]heptane-3-carboxamide], the IC50 is less than 1000 nM.

On to `CC(=O)c1nn(CC(=O)N2[C@H](C(=O)Nc3nc(Br)ccc3C)C[C@@]3(C)C[C@@H]23)c2ccc(-c3cnc(N)nc3)cc12` [Compound 620, (1R,3S,5R)-2-(2-(3-Acetyl-5-(2-aminopyrimidin-5-yl)-1H-indazol-1-yl)acetyl)-N-(6-bromo-3-methylpyridin-2-yl)-5-methyl-2-azabicyclo[3.1.0]hexane-3-carboxamide], for which the IC50 is less than 1000 nM.

`CC(=O)c1nn(CC(=O)N2[C@H](C(=O)NCC(F)=C(C)C)C[C@@]3(C)C[C@@H]23)c2ccc(-c3cnc(C)nc3)cc12` [Compound 621, (1R,3S,5R)-2-(2-(3-acetyl-5-(2-methylpyrimidin-5-yl)-1H-indazol-1-yl)acetyl)-N-(2-fluoro-3-methylbut-2-en-1-yl)-5-methyl-2-azabicyclo[3.1.0] hexane-3-carboxamide]: the IC50 is less than 1000 nM.

As to `CC(=O)c1nn(CC(=O)N2[C@H](C(=O)N[C@@H](C)C(F)=C(C)C)C[C@@]3(C)C[C@@H]23)c2ccc(-c3cnc(C)nc3)cc12` [Compound 622, (1R,3S,5R)-2-(2-(3-acetyl-5-(2-methylpyrimidin-5-yl)-1H-indazol-1-yl)acetyl)-N-((S)-3-fluoro-4-methylpent-3-en-2-yl)-5-methyl-2-azabicyclo[3.1.0] hexane-3-carboxamide], the IC50 is less than 1000 nM.

`CC(=O)c1nn(CC(=O)N2[C@H](C(=O)N[C@H](C)C(F)=C(C)C)C[C@@]3(C)C[C@@H]23)c2ccc(-c3cnc(C)nc3)cc12` [Compound 623, (1R,3S,5R)-2-(2-(3-acetyl-5-(2-methylpyrimidin-5-yl)-1H-indazol-1-yl)acetyl)-N-((R)-3-fluoro-4-methylpent-3-en-2-yl)-5-methyl-2-azabicyclo[3.1.0] hexane-3-carboxamide]: the IC50 was less than 1000 nM.

For the compound `CC(=O)c1nn(CC(=O)N2[C@H](C(=O)Nc3cccc(OC(F)(F)F)n3)C[C@@]3(C)C[C@@H]23)c2ccc(-c3cnc(C)nc3)cc12` [Compound 624, (1R,3S,5R)-2-(2-(3-acetyl-5-(2-methylpyrimidin-5-yl)-1H-indazol-1-yl)acetyl)-5-methyl-N-(6-(trifluoromethoxy)pyridin-2-yl)-2-azabicyclo[3.1.0] hexane-3-carboxamide], the IC50 was less than 1000 nM.

In the case of `CC(=O)c1nn(CC(=O)N2[C@H](C(=O)Nc3ccn(CC(F)(F)F)n3)C[C@@]3(C)C[C@@H]23)c2ccc(-c3cnc(C)nc3)cc12` [Compound 625], the IC50 is less than 1000 nM.

Turning to `CC(=O)c1nn(CC(=O)N2[C@H](C(=O)Nc3cccc(OC(F)(F)F)c3F)C[C@@]3(C)C[C@@H]23)c2ccc(-c3cnc(C)nc3)cc12` [Compound 630, (1R,3S,5R)-2-(2-(3-acetyl-5-(2-methylpyrimidin-5-yl)-1H-indazol-1-yl)acetyl)-N-(2-fluoro-3-(trifluoromethoxy)phenyl)-5-methyl-2-azabicyclo[3.1.0] hexane-3-carboxamide], the IC50 is less than 1000 nM.

(Values after US10287301B2 (Achillion Pharmaceuticals, Inc., priority 2015, dated 2019).)
